Literature values, collected in patent publication US11607386B2, “Liposomes encapsulating adenosine” (New York University, priority 2019, dated 2023).

Experiments:
[1] = not given; remark: listed apart in the source

## Nc1ncnc2c1ncn2[C@@H]1O[C@H](CO)[C@@H](O)[C@H]1O [adenosine]
other
  solubility of adenosine in water: 7000 µg/mL
[1]
  half-life: mere seconds
